Values joined by “and” are separate entries in the source; they are usually repeats but may differ in a detail not shown here. Equal values may be shown once. Read-outs that look alike come from different tables or passages of the source.
Legend:
bovine factor Xa = target: T1, bovine factor Xa (Bos taurus, UniProt P00743); assay: Protease inhibitory assay, chromogenic substrate S-2222; format: biochemical; details: cmpd conc 200 µM; for vinit: replicate values; for Ki: FactorXa, one of two values averaged in Supplementary Data 1, read-out: Ki
T1 construct: bovine factor Xa, Chromogenix, 2 nkat/mL; purchased Chromogenix

human thrombin = target: T2, human thrombin (Homo sapiens, UniProt P00734); assay: Protease inhibitory assay, chromogenic substrate S-2238; format: biochemical; details: for vinit: replicate values; for Ki: Thrombin, one of two values averaged in Supplementary Data 1, read-out: Ki
T2 construct: human thrombin; purchased Sigma-Aldrich

[1] = FactorXa primary screening, substrate 100 µM
[2] = Thrombin primary screening, substrate 40 µM, cmpd conc 500 µM
[3] = FactorXa Ki determination, substrate 100 µM
[4] = FactorXa Ki determination, substrate 200 µM
[5] = Thrombin Ki determination, substrate 20 µM, cmpd conc 200 µM
[6] = Thrombin Ki determination, substrate 40 µM, cmpd conc 200 µM
[7] = substrate 20 µM, cmpd conc 200 µM
[8] = substrate 40 µM, cmpd conc 200 µM

T1 sequence (P00743 234-492 limits assumed): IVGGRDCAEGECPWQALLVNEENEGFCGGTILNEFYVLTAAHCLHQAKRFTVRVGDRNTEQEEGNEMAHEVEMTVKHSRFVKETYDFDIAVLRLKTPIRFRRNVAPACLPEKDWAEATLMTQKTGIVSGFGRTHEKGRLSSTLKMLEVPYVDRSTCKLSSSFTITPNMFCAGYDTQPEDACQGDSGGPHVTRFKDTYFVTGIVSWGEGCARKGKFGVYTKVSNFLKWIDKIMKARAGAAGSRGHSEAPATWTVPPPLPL
T1 sequence (P00743 41-180 partner limits assumed): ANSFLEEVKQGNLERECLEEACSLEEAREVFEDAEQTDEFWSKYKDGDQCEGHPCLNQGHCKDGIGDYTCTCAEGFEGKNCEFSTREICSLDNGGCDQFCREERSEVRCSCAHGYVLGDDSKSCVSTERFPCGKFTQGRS

| Structure (SMILES) | V0 / Vi (bovine factor Xa; [1]) | vinit (bovine factor Xa; [1]) | V0 / Vi (human thrombin; [2]) | vinit (human thrombin; [2]) | further results |
| --- | --- | --- | --- | --- | --- |
| O=C1CNCCN1c1ccccc1 [SX-B2] | 1.00 | 17.273 and 17.782 | 1.05 | 28.909 and 27.2 | – |
| O=C1CCCc2occc21 [SX-B3] | 1.01 | 17.709 and 16.909 | 0.97 | 30.582 and 29.818 | – |
| NC1CCc2ccccc21 (stereo not shown) [SX-B4] | 0.93 | 18.714 and 18.143 | 0.96 | 31.2 and 30.982 | – |
| N[C@H]1c2ccccc2C[C@H]1CO [SX-B5] | 0.91 | 18.071 and 19.643 | 0.98 | 32.873 and 28.182 | – |
| O=c1[nH]ncc2c1oc1ccccc12 [SX-B6] | 1.00 | 17.214 and 17.071 | 1.05 | 28.582 and 28.145 | – |
| O=C1NC(=O)C2(CCc3ccccc32)N1 (stereo not shown) [SX-B7] | 0.98 | 19.273 and 17.122 | 0.98 | 31.782 and 31.345 | – |
| CS(=O)(=O)c1ccc(OC(F)(F)F)cc1 [SX-B8] | 0.94 | 20.109 and 18.073 | 0.99 | 31.709 and 31.2 | – |
| Cc1cnc(C(F)(F)F)cn1 [SX-B9] | 0.98 | 18.8 and 17.6 | 1.01 | 31.164 and 30.509 | – |
| CN1CC(=O)NC1=O [SX-B10] | 0.98 | 14 and 15.6 | 0.98 | 32.909 and 30.982 | – |
| Cc1cc(N)no1 [SX-B11] | 0.97 | 13.08 and 16.72 | 1.00 | 30.982 and 31.927 | – |
| COc1ccccc1CC1CCNCC1.Cl [SX-B12] | 1.35 | 10.3 and 11.164 | 0.97 | 32.327 and 32.218 | V0 / Vi (bovine factor Xa; [3]): 1.28; vinit, avrg. (bovine factor Xa; [3]): 12.727; vinit (bovine factor Xa; [3]): 13.1265 and 12.596 and 12.46; V0 / Vi (bovine factor Xa; [4]): 1.25; vinit (bovine factor Xa; [4]): 26.514 and 31.33 and 29.51; Ki (bovine factor Xa; substrate 100 µM): 445 µM; Ki (bovine factor Xa; substrate 200 µM): 357 µM |
| Fc1ccc(CC2CCCNC2)cc1 (stereo not shown) [SX-C1] | 0.94 | 18.218 and 18.909 | 0.97 | 29.564 and 30.8 | – |
| c1ccc(-c2ccncc2)cc1 [SX-C2] | 1.01 | 16.764 and 18 | 0.98 | 30.473 and 29.273 | – |
| NC(c1ccccc1)c1ccccc1 [SX-C3] | 0.95 | 19.527 and 17.564 | 1.07 | 27.818 and 27.309 | – |
| c1ccc2c(N3CCNCC3)ccnc2c1 [SX-C4] | 1.03 | 16.357 and 17 | 1.01 | 30.291 and 29.018 | – |
| O=c1ccc2c([nH]1)CCCC2 [SX-C5] | 1.05 | 16.714 and 16 | 1.00 | 30.182 and 29.673 | – |
| CC1(C)OC(=O)c2cc(Br)c(O)cc2O1 [SX-C6] | 1.03 | 16.857 and 16.429 | 1.14 | 27.418 and 25.091 | – |

| Structure (SMILES) | V0 / Vi (bovine factor Xa; [1]) | vinit (bovine factor Xa; [1]) | V0 / Vi (human thrombin; [2]) | vinit (human thrombin; [2]) | further results |
| --- | --- | --- | --- | --- | --- |
| CC(=O)c1ccc2c(c1)CCCN2 [SX-C7] | 1.02 | 17.382 and 17.673 | 0.96 | 32.218 and 32.109 | – |
| CC(=O)c1ccc2c(c1)CNCC2 [SX-C8] | 0.98 | 18.691 and 17.818 | 0.98 | 32.218 and 31.018 | – |
| O=C1NC2(CCCC2)Nc2ccccc21 [SX-C9] | 0.98 | 18.873 and 17.6 | 1.01 | 30.218 and 31.018 | – |
| O=c1[nH]c2c(s1)CCC2 [SX-C10] | 1.04 | 13.7 and 14.2 | 0.94 | 33.418 and 33.127 | – |
| C1=C[C@H]2O[C@@H]1c1ccccc12 [SX-C11] | 0.94 | 15.415 and 15.185 | 0.96 | 33.564 and 31.964 | – |
| N#Cc1ccc2ncsc2c1 [SX-C12] | 1.17 | 10.6 and 14 | 0.98 | 31.855 and 32.109 | – |
| Nc1ccc(SC(F)F)cc1 [SX-D1] | 0.99 | 18.218 and 17.091 | 1.00 | 28.182 and 30.8 | – |
| CCc1ccc(NC2=NCCCS2)cc1 [SX-D2] | 1.02 | 16.873 and 17.6 | 0.96 | 30.909 and 30.582 | – |
| Nc1nnc(-c2cccs2)[nH]1 [SX-D3] | 1.09 | 16.545 and 15.782 | 1.08 | 26.655 and 27.673 | V0 / Vi (human thrombin; [5]): 1.11; vinit, avrg. (human thrombin; [5]): 23.831; vinit (human thrombin; [5]): 23.075 and 23.01 and 25.41; V0 / Vi (human thrombin; [6]): 1.08; vinit, avrg. (human thrombin; [6]): 31.345; vinit (human thrombin; [6]): 30.327 and 31.656 and 32.05; Ki (human thrombin; [7]): 204 µM; Ki (human thrombin; [8]): 158 µM |
| CCn1cnc2ccccc21 [SX-D4] | 1.03 | 16.929 and 16.571 | 0.98 | 30.291 | – |
| CCCN1C(=O)CC(=O)NC1=S [SX-D5] | 1.06 | 16.429 and 16.071 | 1.13 | 26.909 and 25.673 | – |
| Cc1ccc(C)n1Cc1ccccc1Cl [SX-D6] | 0.98 | 17.786 and 17.286 | 1.24 | 26.364 and 21.673 | – |
| Cc1ccc(-c2ccc(O)cc2)cc1 [SX-D7] | 1.15 | 14.909 and 16.073 | 1.05 | 30.8 and 28.545 | – |
| c1ccc(Nc2nncs2)cc1 [SX-D8] | 1.17 | 15.418 and 15.164 | 0.99 | 30.873 and 31.527 | V0 / Vi (bovine factor Xa; [3]): 1.15; vinit, avrg. (bovine factor Xa; [3]): 14.126; vinit (bovine factor Xa; [3]): 15.1223 and 13.77 and 13.49; V0 / Vi (bovine factor Xa; [4]): 1.14; vinit (bovine factor Xa; [4]): 30.094 and 32.958 and 33.09; Ki (bovine factor Xa; substrate 100 µM): 814 µM; Ki (bovine factor Xa; substrate 200 µM): 652 µM |
| CC1CCc2sc(C(=O)O)cc2C1 (stereo not shown) [SX-D9] | 1.04 | 17.818 and 16.655 | 1.40 | 23.527 and 20.764 | V0 / Vi (human thrombin; [5]): 1.41; vinit, avrg. (human thrombin; [5]): 18.876; vinit (human thrombin; [5]): 19.443 and 19.03 and 18.15; V0 / Vi (human thrombin; [6]): 1.17; vinit, avrg. (human thrombin; [6]): 28.950; vinit (human thrombin; [6]): 33.096 and 26.331 and 27.42; Ki (human thrombin; [7]): 57 µM; Ki (human thrombin; [8]): 73 µM |
| c1ccc2oc(C3CCCNC3)nc2c1 (stereo not shown) [SX-D10] | 0.95 | 15 and 15.3 | 0.92 | 35.091 and 33.236 | – |
| COc1ccc(CN2CCNCC2)cc1F [SX-D11] | 0.84 | 17.75 and 16.65 | 0.91 | 34.582 and 34.364 | – |

— PMC8159961, “Exploring protein hotspots by optimized fragment pharmacophores” (Nature Communications, 2021)
